Laboratory results as given in patent US20100234433A1, “GLYCOGEN PHOSPHORYLASE INHIBITOR COMPOUND AND PHARMACEUTICAL COMPOSITION THEREOF” (priority 2007, published 2010).

Key:
[1] = biological target: T1, human liver glycogen phosphorylase a (HLGPa) (Homo sapiens, UniProt P06737); assay: Human liver glycogen phosphorylase a enzymatic activity assay; assay type: biochemical; conditions: 15 nM HLGPa, coupled resorufin fluorescence readout; assay run with and without 10 mM glucose, condition of the value not stated
T1 construct: creating a full-length cDNA fused at the 5′ end to codons for methionine-glycine-alanine-histidine; 6x histidine tag (leader Met-Gly-Ala-His6-Gly-Gly) (N); Tev protease cleavage site (Glu-Asn-Leu-Tyr-Phe-Gln-Gly-Gly) (N); made in house; host or cells: E. coli (bacterial expression plasmid pTXK1007LTev)
T1 sequence (P06737 1-847): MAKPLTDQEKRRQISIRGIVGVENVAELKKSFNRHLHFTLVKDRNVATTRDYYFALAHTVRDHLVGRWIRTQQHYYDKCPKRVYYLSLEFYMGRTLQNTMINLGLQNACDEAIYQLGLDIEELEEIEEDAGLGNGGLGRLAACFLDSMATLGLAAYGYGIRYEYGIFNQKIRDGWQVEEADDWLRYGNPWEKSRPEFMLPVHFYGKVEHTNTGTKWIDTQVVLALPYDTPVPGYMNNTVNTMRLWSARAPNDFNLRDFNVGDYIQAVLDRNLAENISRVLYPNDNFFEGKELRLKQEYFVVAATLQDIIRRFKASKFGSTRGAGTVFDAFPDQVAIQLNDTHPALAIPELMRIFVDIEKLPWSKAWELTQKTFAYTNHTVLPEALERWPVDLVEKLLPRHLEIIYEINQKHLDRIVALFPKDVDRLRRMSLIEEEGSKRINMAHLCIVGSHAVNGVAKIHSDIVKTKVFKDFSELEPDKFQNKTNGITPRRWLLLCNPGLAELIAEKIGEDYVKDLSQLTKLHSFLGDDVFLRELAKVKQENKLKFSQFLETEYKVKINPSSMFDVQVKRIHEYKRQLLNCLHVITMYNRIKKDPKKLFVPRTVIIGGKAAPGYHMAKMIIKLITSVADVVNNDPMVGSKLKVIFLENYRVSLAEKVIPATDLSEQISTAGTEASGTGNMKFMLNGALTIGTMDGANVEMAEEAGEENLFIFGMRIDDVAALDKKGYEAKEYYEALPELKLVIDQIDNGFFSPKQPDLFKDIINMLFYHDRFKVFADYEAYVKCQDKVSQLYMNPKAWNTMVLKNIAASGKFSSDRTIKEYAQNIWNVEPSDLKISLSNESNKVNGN
Experimental: The purified glycogen phosphorylase (GP) enzyme, wherein glycogen phosphorylase is in the activated “a” state, referred to as human liver glycogen phosphorylase a (HLGPa), can be obtained according to the following procedures.
Frozen purified glycogen phosphorylase (HLGPb) was thawed in at 4° C. then dialyzed overnight into 50 mM HEPES, 100 mM NaCl, pH 7.4. 15 mg of the dialyzed HLGPb, 3 mM ATP and 5 mM MgCl2 was incubated with 500 μl of the prepared Affi-Gel immobilized phosphorylase kinase beads equilibrated with 50 mM HEPES, 100 mM NaCl, pH 7.4. The degree of phosphorylation was monitored by following the increase in activity at 10 minute intervals using the assay system outlined below. […] MgCl2, 3.5 mM KH2PO4, 0.5 mM DTT, 0.4 mg/mL glycogen, 7.5 mM Glucose, 0.50 mM β-nicotinamide adenine dinucleotide (β-NAD), 3 U/mL phosphoglucomutase, and 5 U/mL glucose-6-phosphate dehydrogenase, Activity was monitored by following the reduction of NAD^+ at 340 nm. […]
An enzymatic assay was developed to measure the response of the activated form of glycogen phosphorylase (HLGPa) to small molecule (<1000 Da.) compounds. […] The change in fluorescence due to product formation was measured on a fluorescence plate reader (Molecular Devices SpectraMax M2) with excitation at 560 nm and emission at 590 nm.

male CD rats = assay: In vivo glucagon challenge model; parameters: species or system rat; conditions: glucagon 10 ug/kg + Sandostatin i.v. 2 hr after dosing, serum glucose 0-20 min
Experimental: Jugular vein cannulated male CD rats (220-260 g) (Charles Rivers, Raleigh, N.C.) were received 1-2 days after cannulation, housed individually on Alpha-Dri™ bedding (Shepherd Specialty Papers, Inc., Kalamazoo, Mich.) with free access to food (Lab Diet 5001, PMI Nutrition International, Brentwood, Mo.) and water and maintained on a 12 h light/dark cycle at 21° C. and 50% relative humidity for 3-4 days prior to the glucagon challenge studies. On the day of the study, the rats were sorted by body weight into treatment groups (N=4-5) and housed individually in shoe box cages with clean Alpha-dri bedding. The cannula lines were opened by removal of 0.2 ml blood and flushed with 0.2 ml sterile saline. After a one hour acclimation, blood samples were collected to determine basal glucose and the rats were orally dosed with vehicle (5% DMSO: 30% Solutol HS15: 20% PEG400: 45% 25 mM N-methylglucamine) or drug (5 ml/kg). Two hr after drug dosing, a time zero blood sample (0.4 ml) was collected for determination of glucose and the rats were dosed through the jugular vein with Sandostatin, 0.5 mg/kg, (Novartis Pharmaceuticals Corp., East Hanover, N.J.) and glucagon, 10 ug/kg (Bedford Laboratories, Bedford, Ohio). Blood samples were collected after 10 and 20 min for glucose determination. Whole blood was placed in a Terumo Capiject blood collection tube (Terumo Medical. Corp., Elkton, Md.), allowed to sit at room temperature for 20-30 minutes and then centrifuged (3,000×G) to obtain serum. Serum levels of glucose were determined using an Olympus AU640™ clinical chemistry immuno-analyzer (Olympus America Inc., Melville, N.Y.). The % reduction (% R) of the vehicle glucose AUG was calculated for each drug treatment using the formula % reduction=100*1−(AUG drug/AUC vehicle), where AUG was calculated from serum glucose values using the equation AUG=(T0+T10)/2*10+(T10+T20)/2*10−(T0*20).

COCc1cc(C)c(NC(=O)Nc2cc(-c3ccc(OC)nc3)ccc2C(=O)N[C@H](C(=O)O)[C@@H](C)OC(C)(C)C)c(C)c1 [Example 1, O-(1,1-Dimethylethyl)-N-({2-{[({2,6-dimethyl-4-[(methyloxy)methyl]phenyl}amino)carbonyl]amino}-4-[6-(methyloxy)-3-pyridinyl]phenyl}carbonyl)-L-threonine] was tested, and the IC50 [1] was 5 nM, the “% R (% reduction of the vehicle glucose AUC)” value (male CD rats; 0.5 mg/kg oral) was 32% and the “% R (% reduction of the vehicle glucose AUC)” value (male CD rats; 2 mg/kg oral) was 53%. The “% R (% reduction of the vehicle glucose AUC)” value (male CD rats; 5 mg/kg oral) was 63% and the “% R (% reduction of the vehicle glucose AUC)” value (male CD rats; 15 mg/kg oral) was 70%.
